According to patent US6355799B1, “Substituted benzene compounds, process for their preparation, and herbicidal and defoliant compositions containing them” (ISK Americas Incorporated, priority 1997, dated 2002):

What was measured:
Type in all cases: in vivo
[1] = system: redroot pigweed (Amaranthus retroflexus, AMARE); experiment: Pre-emerge test, greenhouse herbicide activity screening; settings: rated 14 days after application, 0 = no damage, 100 = complete death
In short: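 Rating: 0–100 visual injury, 14 DAA. Application: acetone, 187 l/ha, 15–1000 g ai/ha, flat-fan track sprayer with nozzle 40–45 cm above soil or canopy. Post-emerge runs used 0.25% v/v surfactant on 2–3 leaf plants.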

[2] = system: barnyardgrass (Echinochloa crus-galli, ECHCG); experiment: as above; settings: rated 14 days after application, 0 = no damage, 100 = complete death
In short: (§1)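 Applied at 15–1000 g ai/ha from acetone in 187 l/ha spray volume. Post-emergence applications included 0.25% v/v non-ionic surfactant and reached plants sown 8–21 days before. Pre-emergence applications were incorporated by surface watering. Efficacy or crop damage was rated on a 0–100 scale after 14 days.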

[3] = system: common ragweed (Ambrosia artemisizfolia L., AMBEL); experiment: as above; settings: rated 14 days after application, 0 = no damage, 100 = complete death
In short: as §1

[4] = system: green foxtail (Setaria viridis, SETVI); experiment: as above; settings: rated 14 days after application, 0 = no damage, 100 = complete death
In short: as §1

[5] = system: ivyleaf morningglory (Ipomoea hederacea, IPOHE); experiment: as above; settings: rated 14 days after application, 0 = no damage, 100 = complete death
In short: as §1

[6] = system: johnsongrass (Sorghum halepense, SORHA); experiment: as above; settings: rated 14 days after application, 0 = no damage, 100 = complete death
In short: as §1

[7] = system: lambsquarters (Chenopodium album, CHEAL); experiment: as above; settings: rated 14 days after application, 0 = no damage, 100 = complete death
In short: as §1

[8] = system: large crabgrass (Digitaria sanguinalis, DIGSA); experiment: as above; settings: rated 14 days after application, 0 = no damage, 100 = complete death
In short: as §1

[9] = system: sicklepod (Cassia obtusifolia, CASOB); experiment: as above; settings: rated 14 days after application, 0 = no damage, 100 = complete death
In short: as §1

[10] = system: velvetleaf (Abutilon theophrasti, ABUTH); experiment: as above; settings: rated 14 days after application, 0 = no damage, 100 = complete death
In short: as §1

[11] = system: field corn (Zea mays L., var. Dekalb 535, CORN); experiment: Pre-emerge test, crop safety; settings: rated 14 days after application, 0 = no damage, 100 = complete death
In short: (§2)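 Herbicidal damage is scored 0 (none) to 100 (complete plant death) two weeks after a simulated field spray. Rates span 15–1000 g ai/ha, delivered in acetone at 187 l/ha. For post-emergence treatments, plants have 2–3 leaves and the spray carries 0.25% v/v non-ionic surfactant.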

[12] = system: upland rice (Oryza sp., var. Tebonnet, RICE); experiment: Pre-emerge test, crop safety; settings: rated 14 days after application, 0 = no damage, 100 = complete death
In short: as §2

[13] = system: barnyardgrass (Echinochloa crus-galli, ECHCG); experiment: Post-emerge test, greenhouse herbicide activity screening; settings: post-emerge, 14 days after application, rating scale 0-100
In short: (§3)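 Compounds in acetone were track-sprayed at 15–1000 g ai/ha: pre-emergence onto soil sown the previous day, then top-watered to incorporate and later bottom-watered; post-emergence onto 2–3 leaf plants with 0.25% v/v surfactant, bottom-watered only. Ratings on a 0–100 phytotoxicity scale were taken at day 14.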

[14] = system: common ragweed (Ambrosia artemisizfolia L., AMBEL); experiment: as above; settings: post-emerge, 14 days after application, rating scale 0-100
In short: as §3

[15] = system: green foxtail (Setaria viridis, SETVI); experiment: as above; settings: post-emerge, 14 days after application, rating scale 0-100
In short: as §3

[16] = system: ivyleaf morningglory (Ipomoea hederacea, IPOHE); experiment: as above; settings: post-emerge, 14 days after application, rating scale 0-100
In short: as §3

[17] = system: johnsongrass (Sorghum halepense, SORHA); experiment: as above; settings: post-emerge, 14 days after application, rating scale 0-100
In short: as §3

[18] = system: lambsquarters (Chenopodium album, CHEAL); experiment: as above; settings: post-emerge, 14 days after application, rating scale 0-100
In short: as §3

[19] = system: large crabgrass (Digitaria sanguinalis, DIGSA); experiment: as above; settings: post-emerge, 14 days after application, rating scale 0-100
In short: as §3

[20] = system: redroot pigweed (Amaranthus retroflexus, AMARE); experiment: as above; settings: post-emerge, 14 days after application, rating scale 0-100
In short: as §3

[21] = system: sicklepod (Cassia obtusifolia, CASOB); experiment: as above; settings: post-emerge, 14 days after application, rating scale 0-100
In short: as §3

[22] = system: velvetleaf (Abutilon theophrasti, ABUTH); experiment: as above; settings: post-emerge, 14 days after application, rating scale 0-100
In short: as §3

[23] = system: field corn (Zea mays L., var. Dekalb 535, CORN); experiment: Post-emerge test, crop safety; settings: post-emerge, 14 days after application, rating scale 0-100
In short: as §1

[24] = system: upland rice (Oryza sp., var. Tebonnet, RICE); experiment: Post-emerge test, crop safety; settings: post-emerge, 14 days after application, rating scale 0-100
In short: as §1

## COc1c(Cl)cc(F)c(-n2c(=O)cc(C(F)(F)F)n(C)c2=O)c1NC(=O)c1ccc(F)cc1 [2-40]
[1]; 63 g ai/ha
  Pre-emerge Herbicidal Activity, phytotoxicity rating (0-100), AMARE: 100
[1]; 250 g ai/ha
  Pre-emerge Herbicidal Activity, phytotoxicity rating (0-100), AMARE: 100
[2]; 63 g ai/ha
  Pre-emerge Herbicidal Activity, phytotoxicity rating (0-100), ECHCG: 85
[2]; 250 g ai/ha
  Pre-emerge Herbicidal Activity, phytotoxicity rating (0-100), ECHCG: 100
[3]; 63 g ai/ha
  Pre-emerge Herbicidal Activity, phytotoxicity rating (0-100), AMBEL: 100
[3]; 250 g ai/ha
  Pre-emerge Herbicidal Activity, phytotoxicity rating (0-100), AMBEL: 100
[4]; 63 g ai/ha
  Pre-emerge Herbicidal Activity, phytotoxicity rating (0-100), SETVI: 100
[4]; 250 g ai/ha
  Pre-emerge Herbicidal Activity, phytotoxicity rating (0-100), SETVI: 100
[5]; 63 g ai/ha
  Pre-emerge Herbicidal Activity, phytotoxicity rating (0-100), IPOHE: 90
[5]; 250 g ai/ha
  Pre-emerge Herbicidal Activity, phytotoxicity rating (0-100), IPOHE: 100
[6]; 63 g ai/ha
  Pre-emerge Herbicidal Activity, phytotoxicity rating (0-100), SORHA: 60
[6]; 250 g ai/ha
  Pre-emerge Herbicidal Activity, phytotoxicity rating (0-100), SORHA: 100
[7]; 63 g ai/ha
  Pre-emerge Herbicidal Activity, phytotoxicity rating (0-100), CHEAL: 100
[7]; 250 g ai/ha
  Pre-emerge Herbicidal Activity, phytotoxicity rating (0-100), CHEAL: 100
[8]; 63 g ai/ha
  Pre-emerge Herbicidal Activity, phytotoxicity rating (0-100), DIGSA: 90
[8]; 250 g ai/ha
  Pre-emerge Herbicidal Activity, phytotoxicity rating (0-100), DIGSA: 100
[9]; 63 g ai/ha
  Pre-emerge Herbicidal Activity, phytotoxicity rating (0-100), CASOB: 80
[9]; 250 g ai/ha
  Pre-emerge Herbicidal Activity, phytotoxicity rating (0-100), CASOB: 100
[10]; 63 g ai/ha
  Pre-emerge Herbicidal Activity, phytotoxicity rating (0-100), ABUTH: 100
[10]; 250 g ai/ha
  Pre-emerge Herbicidal Activity, phytotoxicity rating (0-100), ABUTH: 100
[11]; 63 g ai/ha
  Pre-emerge phytotoxicity rating (0-100), crop damage, CORN: 50
[11]; 250 g ai/ha
  Pre-emerge phytotoxicity rating (0-100), crop damage, CORN: 95
[12]; 63 g ai/ha
  Pre-emerge phytotoxicity rating (0-100), crop damage, RICE: 95
[12]; 250 g ai/ha
  Pre-emerge phytotoxicity rating (0-100), crop damage, RICE: 100
[13]; 63 g ai/ha
  phytotoxicity rating ECHCG: 0
[13]; 250 g ai/ha
  phytotoxicity rating ECHCG: 100
[14]; 63 g ai/ha
  phytotoxicity rating AMBEL: 80
[14]; 250 g ai/ha
  phytotoxicity rating AMBEL: 100
[15]; 63 g ai/ha
  phytotoxicity rating SETVI: 10
[15]; 250 g ai/ha
  phytotoxicity rating SETVI: 90
[16]; 63 g ai/ha
  phytotoxicity rating IPOHE: 100
[16]; 250 g ai/ha
  phytotoxicity rating IPOHE: 100
[17]; 63 g ai/ha
  phytotoxicity rating SORHA: 30
[17]; 250 g ai/ha
  phytotoxicity rating SORHA: 100
[18]; 63 g ai/ha
  phytotoxicity rating CHEAL: 80
[18]; 250 g ai/ha
  phytotoxicity rating CHEAL: 95
[19]; 63 g ai/ha
  phytotoxicity rating DIGSA: 10
[19]; 250 g ai/ha
  phytotoxicity rating DIGSA: 90
[20]; 63 g ai/ha
  phytotoxicity rating AMARE: 90
[20]; 250 g ai/ha
  phytotoxicity rating AMARE: 100
[21]; 63 g ai/ha
  phytotoxicity rating CASOB: 50
[21]; 250 g ai/ha
  phytotoxicity rating CASOB: 90
[22]; 63 g ai/ha
  phytotoxicity rating ABUTH: 100
[22]; 250 g ai/ha
  phytotoxicity rating ABUTH: 100
[23]; 63 g ai/ha
  phytotoxicity rating CORN: 40
[23]; 250 g ai/ha
  phytotoxicity rating CORN: 90
[24]; 63 g ai/ha
  phytotoxicity rating RICE: 50
[24]; 250 g ai/ha
  phytotoxicity rating RICE: 95
